This is an account of results in patent US20220340629A1, “Myosin Derived Peptides and Related Compounds with Anticoagulant Activities” (THE SCRIPPS RESEARCH INSTITUTE, priority 0001, published 2022).

Read-outs that look alike come from different tables or passages of the source. Non-standard residues stand in square brackets, D forms with d. Residues, ends and D or L forms follow the SMILES beside them. NMeF = CN[C@@H](Cc1ccccc1)C(=O)O; NMeN = CN[C@@H](CC(N)=O)C(=O)O; NMeS = CN[C@@H](CO)C(=O)O; Nle = CCCC[C@H](N)C(=O)O

Test [1] concerns thrombin generation in human platelet poor plasma with skeletal muscle myosin. In words: Assay 2A: thrombin generation, recalcification of human platelet poor plasma + myosin. The format is biochemical. As to conditions: human platelet poor plasma 30%, myosin 50 nM, CaCl2 10 mmol/L; read-out: 2A (recalcification +myosin). In short, it runs like this:
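Pooled normal human platelet-poor plasma (30%) preincubated 5 min at 37° C with 50 nM skeletal muscle myosin and peptide in DMSO. Coagulation triggered with 10 mmol/L CaCl2 plus fluorogenic Z-Gly-Gly-Arg-AMC; thrombin generation followed 25 min (ex 360/em 460 nm). IC50 = peptide concentration giving 50% inhibition of thrombin generation.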

Test [2] addresses skeletal muscle myosin-supported prothrombin activation by factors Xa and Va (Homo sapiens, UniProt P00742). The test can be described thus: Assay 1A: prothrombin activation by factor Xa/factor Va/myosin in purified system. Format: biochemical, human factors Xa and Va; rabbit skeletal muscle myosin. Particulars: purified system.
For test [3], the target named is phospholipid-supported prothrombin activation by factors Xa and Va (Homo sapiens, UniProt P00742). The test can be described thus: Assay 1C: phospholipid vesicle (PC/PS 80%/20%)-supported prothrombin activation. Format: biochemical.
Sequence of phospholipid-supported prothrombin activation by factors Xa and Va (P00742 41-179 limits assumed): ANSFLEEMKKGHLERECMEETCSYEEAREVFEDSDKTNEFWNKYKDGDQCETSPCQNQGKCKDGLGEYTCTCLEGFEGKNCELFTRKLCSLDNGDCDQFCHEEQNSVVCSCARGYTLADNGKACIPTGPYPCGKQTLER
Sequence of phospholipid-supported prothrombin activation by factors Xa and Va (P00742 235-488 limits assumed): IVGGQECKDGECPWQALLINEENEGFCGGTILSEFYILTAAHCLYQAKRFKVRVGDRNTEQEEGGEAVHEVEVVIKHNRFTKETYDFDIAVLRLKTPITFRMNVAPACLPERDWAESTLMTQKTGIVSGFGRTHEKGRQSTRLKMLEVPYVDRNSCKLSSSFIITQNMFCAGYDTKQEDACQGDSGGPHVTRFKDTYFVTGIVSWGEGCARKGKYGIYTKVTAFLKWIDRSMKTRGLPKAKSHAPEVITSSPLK
For test [4], the system named is skeletal muscle myosin-supported prothrombin activation by factors Xa and Va. The test can be described thus: Assay 1A: prothrombin activation by factor Xa/factor Va/myosin in purified system. Particulars: for IC50: dose-dependency assays, FIG. 2A, myosin 2 nM, read-out: IC50, inhibition of myosin-supported prothrombin activation; for inhibition of myosin-supported prothrombin activation at 5 μM: peptide 5 μM; for inhibition of myosin-supported prothrombin activation at 5 μM / inhibition of myosin-supported prothrombin activation at 100 μM: FIG. 1A; for inhibition of myosin-supported prothrombin activation at 100 μM: peptide 100 μM; for inhibition of myosin-supported prothrombin activation: dose-dependent studies, FIG. 4, TFP 0-100 μM, ELC peptides 0-300 μM. The format is biochemical, human factors Xa and Va; rabbit skeletal muscle myosin.

Test [5] concerns thrombin generation in human plasma. The test can be described thus: Thrombin generation assay in pooled normal human plasma (Examples 3 and 4). The format is biochemical. Particulars: screened at 25 μM, FIG. 3A. On the procedure: Thrombin generation assay in pooled human plasma: The effect of synthetic peptides on thrombin generation in pooled normal human plasma (George King Bio-medical, Inc., Overland Park, KS) was tested as described (1,11). Briefly, normal human plasma (30 μl) was mixed with CTI, followed by the addition of peptide. Then, tissue factor (TF) (Innovin) (0.5[…] pM final) containing 30 mM Ca^++ in TBSA with fluorogenic thrombin substrate solution (I-1140) (Bachem Americas, Inc., Torrance, Calif.) were added to the plasma to initiate coagulation activation. The first derivative of the time course data for substrate hydrolysis yielded the thrombin generation curve, allowing measurement of thrombin generation during the initiation, propagation and termination phases of thrombin generation and the value for peak thrombin generated.

For test [6], the target named is T1, prothrombin activation by factor Xa and factor Va (no myosin) (Homo sapiens, UniProt P00742).
T1 construct: the same reaction mixture of factor Xa, factor Va and prothrombin
T1 sequence (P00742 41-179 limits assumed): as the sequence (P00742 41-179 limits assumed) above
T1 sequence (P00742 235-488 limits assumed): as the sequence (P00742 235-488 limits assumed) above
The test can be described thus: Assay 1B: prothrombin activation by factor Xa/factor Va, no myosin. Particulars: for inhibition of prothrombin activation in the absence of myosin: FIG. 4, peptide 0-300 μM. Format: biochemical.

The mark [7] stands for this setting: skeletal muscle myosin, factor Va 5 nM, factor Xa 0.2 nM, prothrombin 0.75 μM, 10 min, read-out: 1A (+myosin).
Where [8] appears, read: PC/PS vesicles 4 μM, read-out: IC50, phospholipid vesicles containing 20% phosphatidylserine-supported prothrombin activation.

Sequence of skeletal muscle myosin-supported prothrombin activation by factors Xa and Va (Homo sapiens, UniProt P00742) (P00742 41-179): as the sequence (P00742 41-179 limits assumed) above
Sequence of skeletal muscle myosin-supported prothrombin activation by factors Xa and Va (Homo sapiens, UniProt P00742) (P00742 235-488): as the sequence (P00742 235-488 limits assumed) above
Sequence of skeletal muscle myosin-supported prothrombin activation by factors Xa and Va (Homo sapiens, UniProt P00742) (P12259 29-737 partner): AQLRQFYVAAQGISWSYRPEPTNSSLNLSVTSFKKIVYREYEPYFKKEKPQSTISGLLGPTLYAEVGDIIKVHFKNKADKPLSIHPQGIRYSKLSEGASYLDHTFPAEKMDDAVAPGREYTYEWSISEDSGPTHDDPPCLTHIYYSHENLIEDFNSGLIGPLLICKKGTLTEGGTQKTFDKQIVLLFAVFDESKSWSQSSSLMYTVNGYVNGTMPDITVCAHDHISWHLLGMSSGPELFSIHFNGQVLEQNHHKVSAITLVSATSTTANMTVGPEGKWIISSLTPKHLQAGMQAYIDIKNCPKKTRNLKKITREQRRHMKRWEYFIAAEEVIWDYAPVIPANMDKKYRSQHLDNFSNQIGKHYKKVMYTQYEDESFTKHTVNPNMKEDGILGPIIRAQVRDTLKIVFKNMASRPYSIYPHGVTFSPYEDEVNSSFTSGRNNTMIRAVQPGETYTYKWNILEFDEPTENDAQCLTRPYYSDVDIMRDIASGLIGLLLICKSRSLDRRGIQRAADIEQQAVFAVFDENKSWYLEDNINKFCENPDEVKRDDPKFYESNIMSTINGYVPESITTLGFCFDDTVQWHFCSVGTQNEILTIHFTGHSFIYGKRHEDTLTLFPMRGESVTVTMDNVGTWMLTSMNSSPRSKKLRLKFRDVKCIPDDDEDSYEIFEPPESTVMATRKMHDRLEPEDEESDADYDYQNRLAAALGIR
Sequence of skeletal muscle myosin-supported prothrombin activation by factors Xa and Va (Homo sapiens, UniProt P00742) (P12259 1574-2224 partner): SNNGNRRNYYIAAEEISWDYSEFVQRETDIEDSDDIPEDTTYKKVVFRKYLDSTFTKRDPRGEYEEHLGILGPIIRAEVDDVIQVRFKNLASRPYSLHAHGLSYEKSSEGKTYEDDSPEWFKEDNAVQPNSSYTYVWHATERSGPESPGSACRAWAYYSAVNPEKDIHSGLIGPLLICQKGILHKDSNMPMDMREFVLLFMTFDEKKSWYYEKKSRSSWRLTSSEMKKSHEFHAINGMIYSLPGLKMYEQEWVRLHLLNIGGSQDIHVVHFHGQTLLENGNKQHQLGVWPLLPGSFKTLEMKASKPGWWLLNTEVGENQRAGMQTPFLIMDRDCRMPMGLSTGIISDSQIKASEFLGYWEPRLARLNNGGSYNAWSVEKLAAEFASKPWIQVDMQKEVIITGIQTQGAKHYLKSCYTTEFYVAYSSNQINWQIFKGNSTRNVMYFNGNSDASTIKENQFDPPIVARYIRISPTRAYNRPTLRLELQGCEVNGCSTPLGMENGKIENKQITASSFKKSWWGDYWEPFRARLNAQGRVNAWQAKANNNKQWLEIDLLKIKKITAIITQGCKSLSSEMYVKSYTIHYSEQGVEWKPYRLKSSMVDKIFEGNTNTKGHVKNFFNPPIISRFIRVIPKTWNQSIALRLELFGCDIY

In the case of `CCCC[C@H](NC(=O)[C@H](Cc1c[nH]c2ccccc12)NC(=O)[C@@H]1CCCN1C(=O)[C@H](Cc1c[nH]c2ccccc12)NC(=O)[C@H](Cc1c[nH]cn1)NC(=O)[C@H](CCCCN)NC(=O)[C@@H](NC(=O)[C@H](CC(N)=O)NC(=O)[C@H](CCCC)NC(=O)[C@H](Cc1ccccc1)NC(=O)[C@H](CO)NC(=O)[C@H](CCCNC(=N)N)NC(=O)[C@@H](NC(=O)[C@H](CC(N)=O)NC(=O)[C@H](Cc1ccc(O)cc1)NC(=O)[C@H](CCC(N)=O)NC(=O)[C@@H](NC(=O)[C@H](CO)NC(=O)[C@H](Cc1ccccc1)NC(=O)[C@@H](NC(=O)[C@H](C)N)[C@@H](C)CC)[C@@H](C)CC)[C@@H](C)CC)C(C)C)C(=O)N[C@@H](CCCCN)C(N)=O` [HC188] (H-AIFSIQYNIRSF[Nle]NVKHWPW[Nle]K-NH2; N-terminus assumed), the values for the IC50 in test [1] and in test [2] (setting [7]) were 10 µM and 0.59 µM, respectively.

For `CCCC[C@H](NC(=O)[C@H](Cc1c[nH]c2ccccc12)NC(=O)[C@@H]1CCCN1C(=O)[C@H](Cc1c[nH]c2ccccc12)NC(=O)[C@H](Cc1c[nH]cn1)NC(=O)[C@H](CCCCN)NC(=O)[C@@H](NC(=O)[C@H](CC(N)=O)NC(=O)[C@H](CCCC)NC(=O)[C@H](Cc1ccccc1)NC(=O)[C@H](CO)NC(=O)[C@H](CCCNC(=N)N)NC(=O)[C@@H](NC(=O)[C@H](CC(N)=O)NC(=O)[C@H](Cc1ccc(O)cc1)NC(=O)[C@H](CCC(N)=O)NC(=O)[C@@H](NC(=O)[C@H](CO)N(C)C(=O)[C@H](Cc1ccccc1)NC(=O)[C@@H](NC(=O)[C@H](C)N)[C@@H](C)CC)[C@@H](C)CC)[C@@H](C)CC)C(C)C)C(=O)N[C@@H](CCCCN)C(N)=O` [HC189] (H-AIF[NMeS]IQYNIRSF[Nle]NVKHWPW[Nle]K-NH2; N-terminus assumed), the IC50 is 17 µM in test [1] and 1.5 µM in test [2] (setting [7]).

As to `CCCC[C@H](NC(=O)[C@H](Cc1c[nH]c2ccccc12)NC(=O)[C@@H]1CCCN1C(=O)[C@H](Cc1c[nH]c2ccccc12)NC(=O)[C@H](Cc1c[nH]cn1)NC(=O)[C@H](CCCCN)NC(=O)[C@@H](NC(=O)[C@H](CC(N)=O)NC(=O)[C@H](CCCC)NC(=O)[C@H](Cc1ccccc1)N(C)C(=O)[C@H](CO)NC(=O)[C@H](CCCNC(=N)N)NC(=O)[C@@H](NC(=O)[C@H](CC(N)=O)NC(=O)[C@H](Cc1ccc(O)cc1)NC(=O)[C@H](CCC(N)=O)NC(=O)[C@@H](NC(=O)[C@H](CS)NC(=O)[C@H](Cc1ccccc1)NC(=O)[C@@H](NC(=O)[C@H](C)N)[C@@H](C)CC)[C@@H](C)CC)[C@@H](C)CC)C(C)C)C(=O)N[C@@H](CCCCN)C(N)=O` [HC198] (H-AIFCIQYNIRS[NMeF][Nle]NVKHWPW[Nle]K-NH2; N-terminus assumed), the results for the IC50 in test [1] and in test [2] (setting [7]) were 16 µM and 0.87 µM, respectively.

As for `CCCC[C@H](NC(=O)[C@H](Cc1c[nH]c2ccccc12)NC(=O)[C@@H]1CCCN1C(=O)[C@H](Cc1c[nH]c2ccccc12)NC(=O)[C@H](Cc1c[nH]cn1)NC(=O)[C@H](CCCCN)NC(=O)[C@@H](NC(=O)[C@H](CC(N)=O)N(C)C(=O)[C@H](CCCC)NC(=O)[C@H](Cc1ccccc1)NC(=O)[C@H](CO)NC(=O)[C@H](CCCNC(=N)N)NC(=O)[C@@H](NC(=O)[C@H](CC(N)=O)NC(=O)[C@H](Cc1ccc(O)cc1)NC(=O)[C@H](CCC(N)=O)NC(=O)[C@@H](NC(=O)[C@H](CS)NC(=O)[C@H](Cc1ccccc1)NC(=O)[C@@H](NC(=O)[C@H](C)N)[C@@H](C)CC)[C@@H](C)CC)[C@@H](C)CC)C(C)C)C(=O)N[C@@H](CCCCN)C(N)=O` [HC199] (H-AIFCIQYNIRSF[Nle][NMeN]VKHWPW[Nle]K-NH2), the IC50 was 5.8 to 10.2 µM in test [1] and 0.46 µM in test [2] (setting [7]).

Regarding `CC[C@H](C)[C@H](NC(=O)[C@H](CC(C)C)NC(=O)[C@H](CCC(N)=O)NC(=O)[C@H](C)NC(=O)[C@H](CC(C)C)NC(=O)[C@H](CCCCN)NC(=O)[C@H](CC(=O)O)NC(=O)[C@H](CC(=O)O)NC(=O)[C@H](CCCNC(=N)N)NC(=O)[C@H](CCSC)NC(=O)[C@@H](N)CCC(=O)O)C(=O)N[C@H](C(=O)N[C@@H](CCCNC(=N)N)C(=O)N[C@H](C(=O)N[C@@H](CCC(N)=O)C(=O)N[C@@H](C)C(=O)N[C@@H](CCCNC(=N)N)C(=O)N[C@@H](CS)C(=O)N[C@@H](CCCNC(=N)N)C(=O)NCC(=O)N[C@@H](Cc1ccccc1)C(=O)N[C@@H](CC(C)C)C(=O)N[C@@H](C)C(=O)N[C@@H](CCCNC(=N)N)C(=O)N[C@H](C(=O)N[C@@H](CCC(=O)O)C(=O)N[C@@H](Cc1ccc(O)cc1)C(=O)N[C@@H](CCC(N)=O)C(=O)N[C@@H](CCCNC(=N)N)C(=O)N[C@@H](CCSC)C(N)=O)C(C)C)[C@@H](C)O)[C@@H](C)O` [HC781-810] (H-EMRDDKLAQLITRTQARCRGFLARVEYQRM-NH2), in test [3] (setting [8]), the IC50 came out at 7.5 µM. Besides, in test [4], the IC50 was 64 µM; the “inhibition of myosin-supported prothrombin activation at 5 μM” value (from here on “inhibition … at 5 μM”) is “inhibitory, to varying degrees”; the “inhibition of myosin-supported prothrombin activation at 100 μM” value (shortened to “inhibition … at 100 μM”) was “inhibited”.

With `CC[C@H](C)[C@H](NC(=O)[C@H](C)NC(=O)[C@@H](N)CCC(=O)O)C(=O)N[C@@H](Cc1ccccc1)C(=O)N[C@@H](CS)C(=O)N[C@H](C(=O)N[C@@H](CCC(N)=O)C(=O)N[C@@H](Cc1ccc(O)cc1)C(=O)N[C@@H](CC(N)=O)C(=O)N[C@H](C(=O)N[C@@H](CCCNC(=N)N)C(=O)N[C@@H](CO)C(=O)N[C@@H](Cc1ccccc1)C(=O)N[C@@H](CCSC)C(=O)N[C@@H](CC(N)=O)C(=O)N[C@H](C(=O)N[C@@H](CCCCN)C(=O)N[C@@H](Cc1c[nH]cn1)C(=O)N[C@@H](Cc1c[nH]c2ccccc12)C(=O)N1CCC[C@H]1C(=O)N[C@@H](Cc1c[nH]c2ccccc12)C(=O)N[C@@H](CCSC)C(=O)N[C@@H](CCCCN)C(=O)N[C@@H](CC(C)C)C(=O)N[C@@H](Cc1ccccc1)C(=O)N[C@@H](Cc1ccccc1)C(=O)N[C@@H](CCCCN)C(=O)N[C@H](C(=O)N[C@@H](CCCCN)C(=O)N1CCC[C@H]1C(=O)N[C@@H](CC(C)C)C(=O)N[C@@H](CC(C)C)C(=O)N[C@@H](CCCCN)C(=O)N[C@@H](CO)C(=O)N[C@@H](C)C(=O)N[C@@H](CCC(=O)O)C(=O)N[C@H](C(=O)N[C@@H](CCC(=O)O)C(=O)N[C@@H](CCCCN)C(=O)N[C@@H](CCC(=O)O)C(N)=O)[C@@H](C)O)[C@@H](C)CC)C(C)C)[C@@H](C)CC)[C@@H](C)CC` [HC815-854] (H-EAIFCIQYNIRSFMNVKHWPWMKLFFKIKPLLKSAETEKE-NH2), the “inhibition of thrombin generation in human plasma” value in test [5] was “significantly inhibited”. The IC50 turned out to be 104 µM in test [3] (setting [8]); 7.5 µM in test [3] (purified system, phospholipid vesicles, read-out: 1C (+phospholipid)); 10.8 µM in test [6] (purified system, no myosin); 1.99 µM in test [2] (prothrombin activation with myosin, read-out: 1A (+ myosin) IC50); 2.3 µM in test [4]. In test [4], the “inhibition … at 5 μM” value was “inhibitory, to varying degrees”. In addition, in test [4], the “inhibition … at 100 μM” value is listed as “inhibited”.

With “QEEIKNMWAAFPPDVGGNVDYKNICYVITH [RLC133-162]”, in test [3] (compared with effects on myosin-supported prothrombin activation), the “inhibitory effects on phospholipid-supported prothrombin activation” value is “not apparent”. In test [4], the IC50 was determined as 26 µM; the “inhibition … at 5 μM” value is recorded as “inhibitory, to varying degrees”; the “inhibition … at 100 μM” value is “inhibited”.

Consider RVFDKEGNGTVMGAELRHVL [ELC138-157], for which the “inhibition of prothrombin activation in the absence of myosin” value in test [6] is “inhibited”. Besides, in test [4], the “inhibition of myosin-supported prothrombin activation” value is “inhibited”.

As for “YEDFVEGLRVFDKEGN [ELC129-144, Ac-YEDFVEGLRVFDKEGN-NH2]”, the “inhibition of prothrombin activation in the absence of myosin” value in test [6] is given as “did not”. Besides, the “inhibition of myosin-supported prothrombin activation” value in test [4] is “inhibited”.
